The results in this text go back to patent US9957214B2, “Multifunctional radical quenchers” (ARIZONA BOARD OF REGENTS ON BEHALF OF ARIZONA STATE …, priority 2012, dated 2018).

Assay [1] relates to Friedreich's ataxia lymphoblast cell line GM15850. In words: Cytoprotection (trypan blue exclusion assay) of DEM-treated FRDA lymphocytes. Format: cell-based. Particulars: Homo sapiens, GM15850, DEM alone 18 ± 10% viability, read-out: Cytoprotection (cell viability, % of untreated control). The procedure, abridged:
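GM15850 FRDA lymphoblasts at 5×10^5 cells/mL pre-incubated with test compounds for 17 h at 37 °C, then exposed to 5 mM DEM to deplete GSH. Viability by 0.4% trypan blue exclusion, ≥500 cells counted per group, expressed as % of non-DEM control; means±S.E.M., n=3.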

Assay [2] has as its system NADH oxidase (complexes I, III and IV). Put plainly: NADH oxidase activity (complexes I, III and IV) in submitochondrial particles. Format: biochemical, bovine.
Assay [3] concerns FRDA lymphocytes. In words: Suppression of lipid peroxidation (C11-BODIPY581/591, FACS) in FRDA lymphocytes treated with diethyl maleate. Particulars: Lymphocyte, DEM, read-out: Scavenging activity (%), suppression of lipid peroxidation. It is filed as cell-based. The procedure, abridged: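 Cells (5×10^5/mL) given compound at 5 and 10 μM for 16 h at 37° C, loaded with 1 μM C11-BODIPY581/591 for 30 min, then stressed with 5 mM DEM for 2 h. Probe oxidation read by FACS.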

Usually viability stands for the share of living cells, or the viability signal relative to a control. As to `CCCCCCCCCCCCCC1=C(OC)C(=O)C=C(NCCCC(=O)OC(C)(C)C)C1=O` [Compound 7, tert-butyl 4-(4-methoxy-3,6-dioxo-5-tridecylcyclohexa-1,4-dienylamino)butanoate], in assay [1], the viability at 0.5 µM is 80%, the viability at 1 µM stood at 80%, the viability at 2.5 µM was determined as 84 ± 5% and the viability at 5 µM was determined as 93 ± 4%. Also, the “NADH oxidase activity (Complex I, III, IV) %” value in assay [2] (1 μM) is 84 ± 1.0%. In addition, in assay [2] (5 μM), the “NADH oxidase activity (Complex I, III, IV) %” value was determined as 77 ± 4.0%. Also, in assay [3], the inhibition at 5 µM was found to be 72 ± 1.8% and the inhibition at 10 µM stood at 86%.

`CCCCCCCCCCCCCC1=C(OC)C(=O)C=C(NCCCC(=O)OCCCCCC)C1=O` [Compound 18, Hexyl 4-(4-methoxy-3,6-dioxo-5-tridecylcyclohexa-1,4-dienylamino)butanoate]: the viability at 5 µM in assay [1] worked out at 90 ± 2%. The “NADH oxidase activity (Complex I, III, IV) %” value in assay [2] (1 μM) came out at 54 ± 5.0%. The “NADH oxidase activity (Complex I, III, IV) %” value in assay [2] (5 μM) is given as 27 ± 3.0%. In assay [3], the inhibition at 5 µM came out at 81 ± 1.6% and the inhibition at 10 µM was determined as 98%.

With `COC1=C2CCCCCCCCCCCCCCCNC(=CC1=O)C2=O` [Compound 40], the viability at 0.1 µM in assay [1] (0.1 μM) came to 36 ± 4.3%. In assay [1], the viability at 0.5 µM is 69 ± 2.3%, the viability at 2.5 µM was determined as 83% and the viability at 5 µM was found to be 92 ± 3.5%. In assay [2] (1 μM), the “NADH oxidase activity (Complex I, III, IV) %” value is given as 95 ± 3^ %. In addition, the “NADH oxidase activity (Complex I, III, IV) %” value in assay [2] (5 μM) was 85 ± 1^ %. In addition, the “NADH oxidase activity (Complex I, III, IV) %” value in assay [2] (10 μM) stood at 70 ± 1%. The inhibition at 1 µM in assay [3] (1 μM) was 29 ± 4.7%. For the same compound, in assay [3], the inhibition at 5 µM worked out at 72% and the inhibition at 10 µM is 83%.

Consider `CCCCCCCCCCCCCC1=C(OC)C(=O)C(C)=C(NCCCC(=O)OC(C)(C)C)C1=O` [Compound 43, tert-butyl 4-(4-methoxy-2-methyl-3,6-dioxo-5-tridecylcyclohexa-1,4-dienylamino)butanoate], for which, in assay [1], the viability at 1 µM came to 67 ± 5% and the viability at 5 µM turned out to be 91 ± 6%. In addition, in assay [2] (1 μM), the “NADH oxidase activity (Complex I, III, IV) %” value was 87 ± 2^ %. Moreover, the “NADH oxidase activity (Complex I, III, IV) %” value in assay [2] (5 μM) is 85 ± 1^ %. The “NADH oxidase activity (Complex I, III, IV) %” value in assay [2] (10 μM) turned out to be 80 ± 1%. For the same compound, in assay [3], the inhibition at 5 µM turned out to be 61 ± 4% and the inhibition at 10 µM worked out at 75 ± 2%.

With `CCCCCCCCCCCCCC1=C(OC)C(=O)C(C)=C(NCCCC(=O)OCCCC)C1=O` [Compound 46, Butyl 4-(4-methoxy-2-methyl-3,6-dioxo-5-tridecylcyclohexa-1,4-dienylamino)butanoate], in assay [1], the viability at 1 µM is 63 ± 4% and the viability at 5 µM amounted to 95 ± 3%. Also, the “NADH oxidase activity (Complex I, III, IV) %” value in assay [2] (1 μM) is on record as 86 ± 2^ %. The “NADH oxidase activity (Complex I, III, IV) %” value in assay [2] (5 μM) is listed as 84 ± 4^ %. Also, the “NADH oxidase activity (Complex I, III, IV) %” value in assay [2] (10 μM) was 68 ± 1%. For the same compound, in assay [3], the inhibition at 5 µM came out at 60 ± 1% and the inhibition at 10 µM was determined as 70 ± 3%.

Regarding `CCCCCCCCCCCCCC1=C(OC)C(=O)C(C)=C(NCCCC(=O)OCCCCCC)C1=O` [Compound 49, Hexyl 4-(4-methoxy-2-methyl-3,6-dioxo-5-tridecylcyclohexa-1,4-dienylamino)butanoate], the viability at 1 µM in assay [1] came to 16 ± 4%. In addition, the viability at 5 µM in assay [1] was 87 ± 4%. The “NADH oxidase activity (Complex I, III, IV) %” value was 74 ± 2^ % in assay [2] (1 μM), 83 ± 2^ % in assay [2] (5 μM) and 74 ± 2% in assay [2] (10 μM). For the same compound, in assay [3], the inhibition at 5 µM worked out at 8 ± 3%. The inhibition at 10 µM in assay [3] turned out to be 13 ± 3%.

Consider `CCCCCCCCCCCCCC1=C(NCCCC(=O)OCCCCCC)C(=O)C(C)=C(NCCCC(=O)OCCCCCC)C1=O` [Compound 50, 2,5-bis(hexyl 4-aminobutanoate)-3-methyl-6-tridecylcyclohexa-2,5-diene-1,4-dione], for which, in assay [1], the viability at 1 µM was determined as 11 ± 2% and the viability at 5 µM stood at 91 ± 3%. In addition, in assay [2] (1 μM), the “NADH oxidase activity (Complex I, III, IV) %” value was 85 ± 1^ %. Moreover, the “NADH oxidase activity (Complex I, III, IV) %” value in assay [2] (5 μM) is recorded as 78 ± 6^ %. In assay [2] (10 μM), the “NADH oxidase activity (Complex I, III, IV) %” value stood at 70 ± 3%. In assay [3], the inhibition at 5 µM stood at 18 ± 1% and the inhibition at 10 µM stood at 23 ± 4%.
